Read-outs that look alike come from different tables or passages of the source.
Legend:
[1] = Pharmacokinetics of schizandrin in plasma of freely moving rats after i.v./oral schizandrin or oral S. chinensis product (LC-MS/MS, noncompartmental analysis); type: in vivo, rat
Description: All experimental protocols involving animals were reviewed and approved by the Institutional Animal Care and Use Committee (IACUC number: 1060813) of National Yang-Ming University. Male Sprague-Dawley rats were obtained from the Laboratory Animal Center of the National Yang-Ming University, Taipei, Taiwan. The animals had free access to food (laboratory rodent diet 5P14, PMI Feeds, Richmond, IN) and water. Six Sprague-Dawley rats (220–240 g) were anesthetized with pentobarbital (50 mg/kg, i.p.) for cannulation. Surgical sites were shaved and disinfected with 70% ethanol solution, and a polyethylene tube (PE50) was implanted into the right jugular vein for collecting blood samples. The cannula were exteriorized and fixed in the dorsal region of the neck. Patency of the tube was maintained by flushing with heparinized saline (20 IU/mL). Rats were allowed to recover 24 h prior to drug administration. Schizandrin was dissolved in 10%DMSO and triply deionized water and administered by gastric gavage at a dose of 10 mg/kg. Schizandrin was dissolved in 10%ethanoland triply deionized water and administered by intravenous injection at a dose of 10 mg/kg. The S. chinensis pharmaceutical product was dissolved in triply deionized water and administered by gastric gavage at a dose of 3 g/kg and 10 g/kg (equivalent to 5.2 mg/kg and 17.3 mg/kg schizandrin).The gavage administration of S. chinensis volume was 3 mL. A 200 μL blood sample was withdrawn from the right jugular vein […] into a heparin-rinsed vial at 5, 15, 30, 45, 60, 90, 120, 150, 180, 240, 360 and 480 min. Blood samples were centrifuged at 6000× g for 10 min at 4 °C. The biological samples were stored at −20 °C before analysis.
Each blood sample (50 μL) was mixed with 1 mL of ethyl acetate and vortexed for 5 min. The mixture was centrifuged at 16000× g for 10 min at 4 °C. The supernatant (1 mL) was transferred to an Eppendorf vial and dried at 40 °C in a centrifugation evaporator. The dried sample was reconstituted in 190 μL of methanol and IS solution (methyl yellow, 5 ng/mL in methanol) and filtered through a 0.22 μm filter. Finally, the filtrate (10 μL) was applied to the UPLC-MS/MS system for analysis.
The LC–MS/MS analysis was performed using a Waters Acquity UPLC™ system (Waters Co., Manchester, UK) consisting of binary solvent manager, an automatic liquid chromatographic sampler and a Waters Xevo^TM tandem quadrupole mass spectrometry equipped with an electrospray ionization (ESI) source. The chromatography was performed on a Purospher® STAR RP-18 endcapped (100 mm × 2.1 mm, 2 μm, Merck KGaA, Darmstadt, Germany) analytical column and maintained at 40 °C in a column oven. The mobile phase consisted of 0.1% formic acid-methanol (15:85, v/v), and the flow rate was set at 0.2 mL/min. The injection volume was 10 μL. The positive ion mode with a multiple reaction monitor (MRM) was used for UPLC-MS/MS analysis. The following precursor-to-product ion transitions were used: m/z 433.22→415.19 for schizandrin and m/z 226.26→76.91 for methyl yellow (internal standard, IS).The instrument parameters were optimized as follows: capillary voltage, 3.2 kV; desolvation gas, nitrogen; desolvation temperature, 400 °C; desolvation gas flow rate, 800 L/h; cone voltage, 18 V; collision energy, 12 V and source temperature, 150 °C. MassLynx 4.1 software (Waters Corporation, Milford, MA, USA) was used for data processing.
Pharmacokinetic calculations were performed on each individual set of data using the pharmacokinetic software WinNonlin Standard Edition, version 1.1 (Scientific Consulting Inc., Apex, NC, USA) by noncompartmental methods for intravenous and oral administration. The results were analyzed using Student’s t-test and the SigmaPlot program (version 13). All data are presented as the mean ± standard deviation (SD).

[2] = Stability of schizandrin in rat plasma (method validation); type: in vitro ADME; settings: for Autosampler Stability / Short-Term Stability / Freeze-Thaw Stability / Long-Term Stability: rat plasma, in % (unit assumed); for Autosampler Stability: 10 °C for 24 h in autosampler; for Short-Term Stability: room temperature for 12 h; for Long-Term Stability: −20 °C for 1 month
Description: (§1) Three concentrations (low, medium, and high) were evaluated for stability. The schizandrin concentrations of 5, 50, and 500 ng/mL were used in the method validation.
Stability was evaluated under four conditions: […]; […]; long-term stability kept at −80 °C for 1 month; and freeze-thaw stability: three samples were frozen and stored at −20 °C for 24 h and then thawed at room temperature. After repeating this cycle three times, the samples were analyzed by UHPLC-MS/MS.

[3] = Stability of schizandrin stock solution; type: physicochemical; settings: up to 1 month at −20 °C
Description: as §1

[4] = male, Sprague-Dawley, iv, schizandrin 10 mg/kg, rat plasma, n = 6
[5] = male, Sprague-Dawley, po, schizandrin 10 mg/kg, rat plasma, n = 6
[6] = schizandrin 10 mg/kg, p.o., rat plasma, n = 6

`COc1cc2c(c(OC)c1OC)-c1c(cc(OC)c(OC)c1OC)C[C@](C)(O)[C@@H](C)C2` [schizandrin] gave a concentration at 15 min ([1]; male, Sprague-Dawley, intravenous, plasma sample from jugular vein of a rat at 15 min after 10 mg/kg, i.v. (Figure 2C)) of 31.8 ng/mL, an AUC [1, 4] of 718 ng·h/mL and an MRT [1, 4] of 34.8 min. It also gave a clearance [1, 4] of 240 ± 30 mL/min/kg, a half-life [1, 4] of 42.2 ± 14.8 min and a clearance ([1]; male, Sprague-Dawley, plasma, schizandrin intravenous group (10 mg/kg), rat) of 90 mL/min. The AUC [1, 5] was 112 ng·h/mL, the Cmax [1, 5] was 60 ± 30 ng/mL and the MRT [1, 5] was 113 min. The half-life [1, 5] was 74.7 ± 33.6 min, the bioavailability ([1]; male, Sprague-Dawley, rat, plasma, oral, 10 mg/kg, schizandrin 10 mg/kg, p.o. vs 10 mg/kg i.v., rat, read-out: F (bioavailability)) was about 15.6% and the Tmax ([1]; male, Sprague-Dawley, rat, plasma, po, 10 mg/kg, schizandrin 10 mg/kg, p.o., rat plasma, n = 6, read-out: Tmax) was at most 30 min. The clearance (CL) ([1]; schizandrin 10 mg/kg orally, rat) was 340 ± 1240 mL/min/kg, the CL [1, 6] was 340 ± 1240 mL/min/kg and the Tmax [1, 6] was 22.50 ± 12.55 min. The “degradation in biological samples” value ([2]; autosampler 24 h at 10 °C, 12 h at room temperature, 1 month at −80 °C, three freeze-thaw cycles) was “No significant degradation”, the “Autosampler Stability” value ([2]; 5 ng/mL) was −1.78 ± 2.25 and the “Short-Term Stability” value ([2]; 5 ng/mL) was −1.63 ± 8.36. The “Freeze-Thaw Stability” value ([2]; 5 ng/mL, three freeze-thaw cycles) was −8.04 ± 3.19, the “Long-Term Stability” value ([2]; 5 ng/mL) was −0.56 ± 0.39 and the “Autosampler Stability” value ([2]; 50 ng/mL) was 3.17 ± 3.19. The “Short-Term Stability” value ([2]; 50 ng/mL) was 5.70 ± 4.52, the “Freeze-Thaw Stability” value ([2]; 50 ng/mL, three freeze-thaw cycles) was −5.16 ± 3.83 and the “Long-Term Stability” value ([2]; 50 ng/mL) was −9.02 ± 0.40. The “Autosampler Stability” value ([2]; 500 ng/mL) was 0.43 ± 0.12, the “Short-Term Stability” value ([2]; 500 ng/mL) was 0.64 ± 0.08 and the “Freeze-Thaw Stability” value ([2]; 500 ng/mL, three freeze-thaw cycles) was −0.63 ± 0.30. The “Long-Term Stability” value ([2]; 500 ng/mL) was −6.75 ± 6.39 and the “stability of stock solution” value [3] was “stable”.
